# Laboratory results from PubChem BioAssay AID1259407 (Chemical Carcinogenesis Research Information System (CCRIS), 2018).
# Activity calls are given as the source filed them. How the calls were made is not given here.
# Tested on: CCRIS mutagenicity, Ames/micronucleus/aberration tests
# Test: CCRIS mutagenicity studies
# Conditions: Test System: AMES SALMONELLA TYPHIMURIUM, Method: PREINCUBATION
smiles,measurement,setting,value
Nc1ncnc2nc(-c3ccc([N+](=O)[O-])cc3)[nH]c12,mutagenic call,"Strain/Indicator: TA98(1,8-DNP), Metabolic Activation: NONE",active; positive
same,mutagenic call,"Strain/Indicator: TA98(1,8-DNP), Metabolic Activation: RAT, LIVER, S-9, PCB",active; positive
same,mutagenic call,"Strain/Indicator: TA98(NR), Metabolic Activation: NONE",active; positive
same,mutagenic call,"Strain/Indicator: TA98(NR), Metabolic Activation: RAT, LIVER, S-9, PCB",active; positive
same,mutagenic call,"Strain/Indicator: TA98, Metabolic Activation: NONE",active; positive
same,mutagenic call,"Strain/Indicator: TA98, Metabolic Activation: RAT, LIVER, S-9, PCB",active; positive
same,mutagenic call,"Strain/Indicator: TA100(1,8-DNP), Metabolic Activation: RAT, LIVER, S-9, PCB",inactive; negative
same,mutagenic call,"Strain/Indicator: TA100(NR), Metabolic Activation: NONE",inactive; negative
same,mutagenic call,"Strain/Indicator: TA100(NR), Metabolic Activation: RAT, LIVER, S-9, PCB",inactive; negative
same,mutagenic call,"Strain/Indicator: TA100, Metabolic Activation: NONE",active; positive
same,mutagenic call,"Strain/Indicator: TA100, Metabolic Activation: RAT, LIVER, S-9, PCB",active; positive
same,mutagenic call,"Strain/Indicator: YG1020, Metabolic Activation: NONE",active; positive
same,mutagenic call,"Strain/Indicator: YG1020, Metabolic Activation: RAT, LIVER, S-9, PCB",active; positive
same,mutagenic call,"Strain/Indicator: YG1021, Metabolic Activation: NONE",active; positive
same,mutagenic call,"Strain/Indicator: YG1021, Metabolic Activation: RAT, LIVER, S-9, PCB",active; positive
same,mutagenic call,"Strain/Indicator: YG1024, Metabolic Activation: NONE",active; positive
same,mutagenic call,"Strain/Indicator: YG1024, Metabolic Activation: RAT, LIVER, S-9, PCB",active; positive
same,mutagenic call,"Strain/Indicator: YG1025, Metabolic Activation: NONE",active; positive
same,mutagenic call,"Strain/Indicator: YG1025, Metabolic Activation: RAT, LIVER, S-9, PCB",active; positive
same,mutagenic call,"Strain/Indicator: YG1026, Metabolic Activation: NONE",active; positive
same,mutagenic call,"Strain/Indicator: YG1026, Metabolic Activation: RAT, LIVER, S-9, PCB",active; positive
same,mutagenic call,"Strain/Indicator: YG1029, Metabolic Activation: NONE",active; positive
same,mutagenic call,"Strain/Indicator: YG1029, Metabolic Activation: RAT, LIVER, S-9, PCB",active; positive
